pIC50: −log10 of the molar value.
Columns and labels:
Test in all cases: cells
Format in all cases: functional, cell-based, Homo sapiens
NOS-1 = conditions: Homo sapiens, NOS-1;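 further: growth inhibition of the human NOS-1 cell line, read out with a cell viability assay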
Description: SANGER: Inhibition of human NOS-1 cell growth in a cell viability assay.

RS4-11 = conditions: Homo sapiens, RS4-11;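 further: growth inhibition of RS4-11 cells, read out by a cell viability assay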
Description: SANGER: Inhibition of human RS4-11 cell growth in a cell viability assay.

NCI-H1395 = conditions: Homo sapiens, NCI-H1395;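 further: cell viability assay read-out quantifying reduced proliferation of human NCI-H1395 cells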
Description: SANGER: Inhibition of human NCI-H1395 cell growth in a cell viability assay.

JVM-2 = conditions: Homo sapiens, JVM-2;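 further: growth inhibition of JVM-2 cells determined by a cell viability assay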
Description: SANGER: Inhibition of human JVM-2 cell growth in a cell viability assay.

BB30-HNC = conditions: Homo sapiens, BB30-HNC;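 further: growth inhibition of the cultured cell line, read out by a cell viability assay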
Description: SANGER: Inhibition of human BB30-HNC cell growth in a cell viability assay.

KURAMOCHI = conditions: Homo sapiens, KURAMOCHI;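 further: growth inhibition of KURAMOCHI cells, read out with a cell viability assay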
Description: SANGER: Inhibition of human KURAMOCHI cell growth in a cell viability assay.

NB10 = conditions: Homo sapiens, NB10;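 further: growth inhibition of NB10 cells, read out by a cell viability assay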
Description: SANGER: Inhibition of human NB10 cell growth in a cell viability assay.

KARPAS-45 = conditions: Homo sapiens, KARPAS-45;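 further: inhibition of cell line growth, read out through a viability assay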
Description: SANGER: Inhibition of human KARPAS-45 cell growth in a cell viability assay.

MOLT-4 = conditions: Homo sapiens, MOLT-4;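 further: growth inhibition of MOLT-4 cells, determined with a cell viability readout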
Description: SANGER: Inhibition of human MOLT-4 cell growth in a cell viability assay.

TE-6 = conditions: Homo sapiens, TE-6;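 further: growth inhibition of TE-6 cells, read out with a cell viability assay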
Description: SANGER: Inhibition of human TE-6 cell growth in a cell viability assay.

SF-268 = conditions: Homo sapiens, SF-268;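 further: growth inhibition of SF-268 cells determined with a cell viability assay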
Description: SANGER: Inhibition of human SF268 cell growth in a cell viability assay.

Mo = conditions: Homo sapiens, Mo
Description: SANGER: Inhibition of human Mo-T cell growth in a cell viability assay.

HCE-T = conditions: Homo sapiens, HCE-T;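 further: cell viability assay read-out, reporting inhibition of HCE-T cell growth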
Description: SANGER: Inhibition of human HCE-T cell growth in a cell viability assay.

ETK-1 = conditions: Homo sapiens, ETK-1;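 further: growth inhibition of human ETK-1 cells, read out with a cell viability assay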
Description: SANGER: Inhibition of human ETK-1 cell growth in a cell viability assay.

DSH1 = conditions: Homo sapiens, DSH1;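 further: growth inhibition of human DSH1 cells, measured with a cell viability readout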
Description: SANGER: Inhibition of human DSH1 cell growth in a cell viability assay.

OCUB-M = conditions: Homo sapiens, OCUB-M;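 further: growth inhibition of the cancer cell line, read out through a cell viability assay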
Description: SANGER: Inhibition of human OCUB-M cell growth in a cell viability assay.

COLO-829 = conditions: Homo sapiens, COLO-829
Description: SANGER: Inhibition of human COLO-829 cell growth in a cell viability assay.

8-MG-BA = conditions: Homo sapiens, 8-MG-BA;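 further: growth inhibition of 8-MG-BA cells, read out with a cell viability assay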
Description: SANGER: Inhibition of human 8-MG-BA cell growth in a cell viability assay.

LU-134-A = conditions: Homo sapiens, LU-134-A
Description: SANGER: Inhibition of human LU-134-A cell growth in a cell viability assay.

MS-1 = conditions: Homo sapiens, MS-1;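 further: growth inhibition of MS-1 cells, read out by cell viability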
Description: SANGER: Inhibition of human MS-1 cell growth in a cell viability assay.

KM-H2 = conditions: Homo sapiens, KM-H2;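 further: growth inhibition of KM-H2 cells, read out by a cell viability assay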
Description: SANGER: Inhibition of human KM-H2 cell growth in a cell viability assay.

SF-539 = conditions: Homo sapiens, SF-539;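 further: Read-out is a cell viability assay, with IC50 reflecting inhibition of cell growth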
Description: SANGER: Inhibition of human SF539 cell growth in a cell viability assay.

U-266 = conditions: Homo sapiens, U-266
Description: SANGER: Inhibition of human U-266 cell growth in a cell viability assay.

KNS-81-FD = conditions: Homo sapiens, KNS-81-FD;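 further: growth inhibition of KNS-81-FD cells, read out with a cell viability assay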
Description: SANGER: Inhibition of human KNS-81-FD cell growth in a cell viability assay.

TGBC1TKB = conditions: Homo sapiens, TGBC1TKB;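 further: growth inhibition of TGBC1TKB cells, read out by a cell viability assay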
Description: SANGER: Inhibition of human TGBC1TKB cell growth in a cell viability assay.

KG-1 = conditions: Homo sapiens, KG-1;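 further: growth inhibition of KG-1 cells, read out by a cell viability assay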
Description: SANGER: Inhibition of human KG-1 cell growth in a cell viability assay.

LS-513 = conditions: Homo sapiens, LS-513
Description: SANGER: Inhibition of human LS-513 cell growth in a cell viability assay.

SCH = conditions: Homo sapiens, SCH;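 further: growth inhibition of human SCH cells, read out in a cell viability assay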
Description: SANGER: Inhibition of human SCH cell growth in a cell viability assay.

EW-24 = conditions: Homo sapiens, EW-24;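 further: human EW-24 cancer cell line, growth inhibition read out via a cell viability assay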
Description: SANGER: Inhibition of human EW-24 cell growth in a cell viability assay.

RXF 393 = conditions: Homo sapiens, RXF 393;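 further: growth inhibition of human RXF 393 cells, read out with a cell viability assay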
Description: SANGER: Inhibition of human RXF393 cell growth in a cell viability assay.

NCI-H1770 = conditions: Homo sapiens, NCI-H1770;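 further: growth inhibition of NCI-H1770 cells determined with a viability readout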
Description: SANGER: Inhibition of human NCI-H1770 cell growth in a cell viability assay.

NCI-H82 = conditions: Homo sapiens, NCI-H82;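 further: growth inhibition of NCI-H82 cells, measured with a cell viability readout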
Description: SANGER: Inhibition of human NCI-H82 cell growth in a cell viability assay.

RPMI-8866 = conditions: Homo sapiens, RPMI-8866
Description: SANGER: Inhibition of human RPMI-8866 cell growth in a cell viability assay.

HCE-4 = conditions: Homo sapiens, HCE-4;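 further: cell viability assay measuring inhibition of growth in the human HCE-4 cell line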
Description: SANGER: Inhibition of human HCE-4 cell growth in a cell viability assay.

IST-MEL1 = conditions: Homo sapiens, IST-MEL1;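 further: growth inhibition of the cell line, read out with a cell viability assay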
Description: SANGER: Inhibition of human IST-MEL1 cell growth in a cell viability assay.

NCI-H1650 = conditions: Homo sapiens, NCI-H1650;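 further: growth inhibition of human NCI-H1650 cells measured by a cell viability assay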
Description: SANGER: Inhibition of human NCI-H1650 cell growth in a cell viability assay.

KE-37 = conditions: Homo sapiens, KE-37;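 further: growth inhibition of KE-37 cells, read out with a cell viability assay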
Description: SANGER: Inhibition of human KE-37 cell growth in a cell viability assay.

CAS-1 = conditions: Homo sapiens, CAS-1;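 further: growth inhibition of CAS-1 cells, measured with a cell viability assay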
Description: SANGER: Inhibition of human CAS-1 cell growth in a cell viability assay.

LB771-HNC = conditions: Homo sapiens, LB771-HNC;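 further: growth inhibition of LB771-HNC human cells, read out with a cell viability assay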
Description: SANGER: Inhibition of human LB771-HNC cell growth in a cell viability assay.

LS-1034 = conditions: Homo sapiens, LS-1034
Description: SANGER: Inhibition of human LS-1034 cell growth in a cell viability assay.

A4-Fuk = conditions: Homo sapiens, A4-Fuk;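 further: growth inhibition of A4-Fuk cells, read out by a cell viability assay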
Description: SANGER: Inhibition of human A4-Fuk cell growth in a cell viability assay.

QIMR-WIL = conditions: Homo sapiens, QIMR-WIL;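 further: growth inhibition of QIMR-WIL cells, read out with a cell viability assay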
Description: SANGER: Inhibition of human QIMR-WIL cell growth in a cell viability assay.

ES6 = conditions: Homo sapiens, ES6;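 further: growth inhibition of human ES6 cells, read out with a cell viability assay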
Description: SANGER: Inhibition of human ES6 cell growth in a cell viability assay.

HCC2157 = conditions: Homo sapiens, HCC2157;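 further: growth inhibition of the cancer cell line, read out as cell viability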
Description: SANGER: Inhibition of human HCC2157 cell growth in a cell viability assay.

COLO-668 = conditions: Homo sapiens, COLO-668
Description: SANGER: Inhibition of human COLO-668 cell growth in a cell viability assay.

NOMO-1 = conditions: Homo sapiens, NOMO-1;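 further: growth inhibition of human NOMO-1 cells measured by a cell viability assay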
Description: SANGER: Inhibition of human NOMO-1 cell growth in a cell viability assay.

SK-MEL-1 = conditions: Homo sapiens, SK-MEL-1;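 further: growth inhibition of human SK-MEL-1 cells, read out by a cell viability assay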
Description: SANGER: Inhibition of human SK-MEL-1 cell growth in a cell viability assay.

BB49-HNC = conditions: Homo sapiens, BB49-HNC;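 further: cell viability assay read-out, reported as inhibition of BB49-HNC cell growth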
Description: SANGER: Inhibition of human BB49-HNC cell growth in a cell viability assay.

EW-13 = conditions: Homo sapiens, EW-13;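 further: growth inhibition of EW-13 cells, read out with a cell viability assay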
Description: SANGER: Inhibition of human EW-13 cell growth in a cell viability assay.

COc1cc(-c2nn([C@H]3CC[C@H](N4CCN(C(C)=O)CC4)CC3)c3ncnc(N)c23)ccc1NC(=O)c1cc2ccccc2n1C
pIC50 (NOS-1): 6.71 | pIC50 (RS4-11): < 5.29 | pIC50 (NCI-H1395): < 5.29 | pIC50 (JVM-2): < 5.29 | pIC50 (BB30-HNC): 6.06 | pIC50 (KURAMOCHI): 6.05 | pIC50 (NB10): < 5.29 | pIC50 (KARPAS-45): < 5.29 | pIC50 (MOLT-4): < 5.29 | pIC50 (TE-6): < 5.29 | pIC50 (SF-268): 5.40 | pIC50 (Mo): < 5.29 | pIC50 (HCE-T): < 5.29 | pIC50 (ETK-1): 6.46 | pIC50 (DSH1): < 5.29 | pIC50 (OCUB-M): 5.30 | pIC50 (COLO-829): < 5.29 | pIC50 (8-MG-BA): 5.34 | pIC50 (LU-134-A): < 5.29 | pIC50 (MS-1): < 5.29 | pIC50 (KM-H2): < 5.29 | pIC50 (SF-539): < 5.29 | pIC50 (U-266): < 5.29 | pIC50 (KNS-81-FD): < 5.29 | pIC50 (TGBC1TKB): 5.44 | pIC50 (KG-1): < 5.29 | pIC50 (LS-513): < 5.29 | pIC50 (SCH): < 5.29 | pIC50 (EW-24): < 5.29 | pIC50 (RXF 393): 5.95 | pIC50 (NCI-H1770): < 5.29 | pIC50 (NCI-H82): < 5.29 | pIC50 (RPMI-8866): < 5.29 | pIC50 (HCE-4): 5.63 | pIC50 (IST-MEL1): 6.08 | pIC50 (NCI-H1650): < 5.29 | pIC50 (KE-37): < 5.29 | pIC50 (CAS-1): < 5.29 | pIC50 (LB771-HNC): < 5.29 | pIC50 (LS-1034): < 5.29 | pIC50 (A4-Fuk): < 5.29 | pIC50 (QIMR-WIL): 5.54 | pIC50 (ES6): 5.71 | pIC50 (HCC2157): < 5.29 | pIC50 (COLO-668): < 5.29 | pIC50 (NOMO-1): < 5.29 | pIC50 (SK-MEL-1): < 5.29 | pIC50 (BB49-HNC): < 5.29 | pIC50 (EW-13): < 5.29

CCC/C=C/C=C/C(=O)O[C@H]1/C(=C/C(=O)OC)C[C@H]2C[C@H]([C@@H](C)O)OC(=O)C[C@H](O)C[C@@H]3C[C@H](OC(C)=O)C(C)(C)[C@](O)(C[C@@H]4C/C(=C/C(=O)OC)C[C@H](/C=C/C(C)(C)[C@]1(O)O2)O4)O3 [BRYOSTATIN 1]
pIC50 (NOS-1): < 8.10 | pIC50 (RS4-11): < 8.10 | pIC50 (NCI-H1395): < 8.10 | pIC50 (JVM-2): < 8.10 | pIC50 (BB30-HNC): < 8.10 | pIC50 (KURAMOCHI): < 8.10 | pIC50 (NB10): < 8.10 | pIC50 (KARPAS-45): < 8.10 | pIC50 (MOLT-4): < 8.10 | pIC50 (TE-6): < 8.10 | pIC50 (SF-268): < 8.10 | pIC50 (Mo): < 8.10 | pIC50 (HCE-T): < 8.10 | pIC50 (ETK-1): < 8.10 | pIC50 (DSH1): < 8.10 | pIC50 (OCUB-M): < 8.10 | pIC50 (COLO-829): < 8.10 | pIC50 (8-MG-BA): < 8.10 | pIC50 (LU-134-A): < 8.10 | pIC50 (MS-1): < 8.10 | pIC50 (KM-H2): < 8.10 | pIC50 (SF-539): < 8.10 | pIC50 (U-266): < 8.10 | pIC50 (KNS-81-FD): < 8.10 | pIC50 (TGBC1TKB): < 8.10 | pIC50 (KG-1): < 8.10 | pIC50 (LS-513): < 8.10 | pIC50 (SCH): < 8.10 | pIC50 (EW-24): < 8.10 | pIC50 (RXF 393): < 8.10 | pIC50 (NCI-H1770): < 8.10 | pIC50 (NCI-H82): < 8.10 | pIC50 (RPMI-8866): < 8.10 | pIC50 (HCE-4): < 8.10 | pIC50 (IST-MEL1): < 8.10 | pIC50 (NCI-H1650): < 8.10 | pIC50 (KE-37): < 8.10 | pIC50 (CAS-1): < 8.10 | pIC50 (LB771-HNC): < 8.10 | pIC50 (LS-1034): < 8.10 | pIC50 (A4-Fuk): < 8.10 | pIC50 (QIMR-WIL): < 8.10 | pIC50 (ES6): < 8.10 | pIC50 (HCC2157): < 8.10 | pIC50 (COLO-668): < 8.10 | pIC50 (NOMO-1): < 8.10 | pIC50 (SK-MEL-1): < 8.10 | pIC50 (BB49-HNC): < 8.10 | pIC50 (EW-13): < 8.10

N[C@@H](CSC(c1ccccc1)(c1ccccc1)c1ccccc1)C(=O)O [S-TRITYL-L-CYSTEINE]
pIC50 (NOS-1): 6.01 | pIC50 (RS4-11): 5.89 | pIC50 (NCI-H1395): < 5.29 | pIC50 (JVM-2): < 5.29 | pIC50 (BB30-HNC): 5.92 | pIC50 (KURAMOCHI): < 5.29 | pIC50 (NB10): < 5.29 | pIC50 (KARPAS-45): 5.77 | pIC50 (MOLT-4): 5.37 | pIC50 (TE-6): 5.41 | pIC50 (SF-268): 5.50 | pIC50 (Mo): < 5.29 | pIC50 (HCE-T): 5.55 | pIC50 (ETK-1): 5.30 | pIC50 (DSH1): < 5.29 | pIC50 (OCUB-M): 6.09 | pIC50 (COLO-829): < 5.29 | pIC50 (8-MG-BA): < 5.29 | pIC50 (LU-134-A): 5.36 | pIC50 (MS-1): 5.61 | pIC50 (KM-H2): 5.54 | pIC50 (SF-539): 5.69 | pIC50 (U-266): 5.32 | pIC50 (KNS-81-FD): < 5.29 | pIC50 (TGBC1TKB): 5.62 | pIC50 (KG-1): < 5.29 | pIC50 (LS-513): < 5.29 | pIC50 (SCH): 5.60 | pIC50 (EW-24): < 5.29 | pIC50 (RXF 393): < 5.29 | pIC50 (NCI-H1770): < 5.29 | pIC50 (NCI-H82): 5.92 | pIC50 (RPMI-8866): < 5.29 | pIC50 (HCE-4): 6.33 | pIC50 (IST-MEL1): < 5.29 | pIC50 (NCI-H1650): < 5.29 | pIC50 (KE-37): 6.37 | pIC50 (CAS-1): < 5.29 | pIC50 (LB771-HNC): 5.71 | pIC50 (LS-1034): 5.56 | pIC50 (A4-Fuk): 6.34 | pIC50 (QIMR-WIL): < 5.29 | pIC50 (ES6): < 5.29 | pIC50 (HCC2157): < 5.29 | pIC50 (COLO-668): < 5.29 | pIC50 (NOMO-1): < 5.29 | pIC50 (SK-MEL-1): < 5.29 | pIC50 (BB49-HNC): < 5.29 | pIC50 (EW-13): < 5.29
